Source: patent US4269839A, “Alkylthio-adenines used as bronchodilators” (Bristol-Myers Company, priority 1979, dated 1981)
Converted amounts (≈) assume the structure as drawn.

Assays:
[1] = system: trachea of anesthetized guinea pig; assay: In vivo bronchodilator activity, decrease in intratracheal pressure (ITP) in the guinea pig; conditions: intravenous; for ED50: Cavia porcellus, anesthetized guinea pig, artificial ventilation, read-out: ITP ED50 (dose resulting in a 50% decrease in intratracheal pressure); for Ratio ABP/ITP (hypotensive ED20/bronchodilating ED50): separation of bronchodilator activity from hypotensive effect
Description: (§1) B. In Vivo Bronchodilator and Hypotensive Activity.
(§2) The trachea of anesthetized guinea pig was cannulated and the ITP recorded on a polygraph under artificial ventilation. Arterial blood pressure (ABP; reflecting hypotensive activity) was also measured during the experiment. Either intravenous or intraduodenal routes of administration are used. […] The ratio of hypotensive ED20 /bronchodilating ED50 reflects an assessment of the separation of desirable bronchodilator activity from undesirable cardiovascular (hypotensive) effect in the compounds.

[2] = system: tracheal chains of guinea pig; assay: In vitro bronchodilator activity, tracheal chains of guinea pig (Magnus method); format: cell-based; conditions: Cavia porcellus, relative to maximum response to 0.1 mcg./ml. isoproterenol, read-out: EC50 (concentration which produces a relaxation which is 50% of the maximum response to 0.1 mcg./ml. of isoproterenol)
Description: A. In Vitro Bronchodilator Activity.
Tracheal chains of guinea pig were prepared by the method of A. Akcasu, Arch. Int. Pharmcodyn. […] The response to each test compound was recorded by the Magnus method and expressed as a percentage of the maximum response obtained with 0.1 mcg./ml. of isoproterenol prior to each experiment.

anesthetized guinea pig = assay: In vivo hypotensive activity, arterial blood pressure (ABP) in the guinea pig; conditions: intravenous, artificial ventilation
Description: as §1, §2

EC50 [2] [µg/mL] | Compound | ED50 [1] [mg/kg] | Ratio ABP/ITP (hypotensive ED20/bronchodilating ED50) [1] | ABP ED20 (dose which reduces arterial blood pressure by 20%) (anesthetized guinea pig) [mg/kg]
0.19 (≈ 0.652 µM) | CCCSc1nc(N)c2ncn(C3CCCCC3)c2n1 [Example 2, 9-Cyclohexyl-2-n-propylthio-9H-adenine] | 1.1 | > 2.7 | > 3
 | Cn1c(=O)c2[nH]cnc2n(C)c1=O [Aminophylline, reference compound] |  |  | 1.4
0.02 (≈ 0.0691 µM) | CCCSc1nc(N)c2ncn(C3C=CCCC3)c2n1 (stereo not drawn) [Example 1, 9-(2-Cyclohexenyl)-2-n-propylthio-9H-adenine] | 0.31 | > 9.7 | > 3
